# Laboratory results from patent US11413250B2, “Shape changing drug delivery devices and methods” (Incept, LLC, priority 2015, dated 2022).
# Conditions: in vivo test of Example 17
# Method: The tolerability, pharmacokinetics, and pharmacodynamics of the formulations from examples 1 and 2 were evaluated in Dutch belted rabbits through 6 months. 112 eyes of naïve Dutch belted rabbits ([…]) were bilaterally dosed with either a necked fiber or a coiled fiber and were sacrificed at 1, 3 and 6 months to test for biocompatibility or pharmacokinetics.
smiles,measurement,value
CNC(=O)c1ccccc1Sc1ccc2c(/C=C/c3ccccn3)n[nH]c2c1 [Axitinib],Toxicity of the delivered amounts,not toxic
